According to ChEMBL document CHEMBL4130413, “1-Aryl-1H- and 2-aryl-2H-1,2,3-triazole derivatives blockade P2X7 receptor in vitro and inflammatory response in vivo” (Eur J Med Chem, 2017):
Active and inactive are the calls of the source. The rule behind the calls is not given here.

Legend:
Mus musculus [1] = assay: Anti-inflammatory activity in Swiss mouse assessed as inhibition of LPS-induced pleural accumulation in neutrophils cells at 100 mg/kg, ip pretreated for 1 hr followed by LPS stimulation and measured after 24 hrs by May-Grunwald-Giemsa staining-based Neubauer chamber based optical microscopy; format: functional, organism-based
Mus musculus [2] = assay: Anti-inflammatory activity in Swiss mouse assessed as inhibition of LPS-induced nitric oxide production in pleural washes at 100 mg/kg, ip pretreated for 1 hr followed by LPS stimulation and measured after 24 hrs by Lowry/Griess analysis; format: functional, organism-based
Peritoneal macrophage = assay: Toxicity in Swiss mouse peritoneal macrophages assessed as LDH release at 10 uM after 60 mins relative to 0.05% Triton X-100; format: cell-based; details: 1 h
P2X purinoceptor 7 [3] = target: T1, P2X purinoceptor 7 (Mus musculus, UniProt Q9Z1M0); assay: Antagonist activity at P2X7 receptor in Swiss mouse peritoneal macrophages assessed as inhibition of ATP-induced current at holding potential of -60 mV preincubated for 5 mins followed by ATP addition measured after 5 mins by Whole cell patch-clamp analysis
T1 sequence (Q9Z1M0 whole entry): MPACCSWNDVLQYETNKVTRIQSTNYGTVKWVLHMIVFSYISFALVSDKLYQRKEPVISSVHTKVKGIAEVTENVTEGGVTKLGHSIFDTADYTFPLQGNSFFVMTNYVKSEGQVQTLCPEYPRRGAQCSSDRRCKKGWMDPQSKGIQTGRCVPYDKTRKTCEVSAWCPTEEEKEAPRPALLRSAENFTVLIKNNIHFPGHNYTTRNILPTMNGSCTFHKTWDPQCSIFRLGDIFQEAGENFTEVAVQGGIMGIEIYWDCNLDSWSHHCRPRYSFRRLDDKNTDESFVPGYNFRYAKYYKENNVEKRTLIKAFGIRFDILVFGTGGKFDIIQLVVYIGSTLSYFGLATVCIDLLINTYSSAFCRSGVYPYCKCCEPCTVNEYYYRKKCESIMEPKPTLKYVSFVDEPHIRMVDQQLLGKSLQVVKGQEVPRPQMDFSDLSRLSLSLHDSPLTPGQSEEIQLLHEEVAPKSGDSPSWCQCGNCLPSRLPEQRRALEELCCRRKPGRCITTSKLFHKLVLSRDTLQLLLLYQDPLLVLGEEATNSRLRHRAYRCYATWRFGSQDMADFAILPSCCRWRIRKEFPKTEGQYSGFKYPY

P2X purinoceptor 7 [4] = target: T2, P2X purinoceptor 7 (Homo sapiens, UniProt Q99572); assay: Antagonist activity at human P2X7 receptor expressed in HEK293 cells assessed as inhibition of ATP-induced ethidium iodide uptake preincubated for 10 mins followed by ATP addition measured after 20 mins by spectrofluorometric analysis; format: cell-based
T2 sequence (Q99572 whole entry): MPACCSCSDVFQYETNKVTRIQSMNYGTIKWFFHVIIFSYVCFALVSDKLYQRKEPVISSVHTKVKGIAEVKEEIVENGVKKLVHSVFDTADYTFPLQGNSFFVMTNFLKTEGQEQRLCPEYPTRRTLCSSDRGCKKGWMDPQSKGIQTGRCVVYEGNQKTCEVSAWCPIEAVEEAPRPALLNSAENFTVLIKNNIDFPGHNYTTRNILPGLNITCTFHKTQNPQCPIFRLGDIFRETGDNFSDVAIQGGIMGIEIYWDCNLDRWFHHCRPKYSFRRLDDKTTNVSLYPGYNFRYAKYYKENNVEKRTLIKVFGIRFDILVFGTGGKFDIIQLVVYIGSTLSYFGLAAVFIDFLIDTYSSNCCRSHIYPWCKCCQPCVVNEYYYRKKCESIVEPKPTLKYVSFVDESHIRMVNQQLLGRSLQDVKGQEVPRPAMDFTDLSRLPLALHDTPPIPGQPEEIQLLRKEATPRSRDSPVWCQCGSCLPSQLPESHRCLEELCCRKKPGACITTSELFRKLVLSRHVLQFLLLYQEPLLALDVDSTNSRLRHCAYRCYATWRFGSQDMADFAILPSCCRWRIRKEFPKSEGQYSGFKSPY

P2X purinoceptor 7 [5] = target: T1, P2X purinoceptor 7; assay: Antagonist activity at P2X7 receptor in Swiss mouse peritoneal macrophages assessed as inhibition of BzATP-induced ethidium iodide uptake after 30 mins by spectrofluorometric analysis
[6] = Intrinsic clearance in human liver microsomes assessed per mg protein at 1 uM measured up to 45 mins; format: ADME, microsome; details: read-out: CLH
[7] = Kinetic solubility in pH 2 hydrochloride buffer at 1 to 250 uM after 2 hrs; format: physicochemical; details: read-out: Kinetic_solubility
[8] = n-Octanol/PBS distribution coefficient, log D of the compound at pH 7.4 at 25 mM after 2 hrs; format: physicochemical
Mus musculus [9] = assay: Anti-inflammatory activity in ip dosed Swiss Webster mouse assessed as inhibition of carrageenan-induced paw edema pretreated for 60 mins followed by carrageenan administration and measured after 30 mins; format: functional
Mus musculus [10] = assay: Anti-inflammatory activity in Swiss mouse assessed as inhibition of LPS-induced pleural accumulation in mononuclear cells at 1 to 100 ng/kg, ip pretreated for 1 hr followed by LPS stimulation and measured after 24 hrs by May-Grunwald-Giemsa staining-based Neubauer chamber based optical microscopy; format: functional, organism-based
Mus musculus [11] = assay: Anti-inflammatory activity in Swiss mouse assessed as inhibition of LPS-induced pleural accumulation in neutrophils at 1 to 100 ng/kg, ip pretreated for 1 hr followed by LPS stimulation and measured after 24 hrs by May-Grunwald-Giemsa staining-based Neubauer chamber based optical microscopy; format: functional, organism-based
Mus musculus [12] = assay: Anti-inflammatory activity in Swiss mouse assessed as inhibition of LPS-induced pleural accumulation in eosinophils at 1 to 100 ng/kg, ip pretreated for 1 hr followed by LPS stimulation and measured after 24 hrs by May-Grunwald-Giemsa staining-based Neubauer chamber based optical microscopy; format: functional, organism-based
Mus musculus [13] = assay: Anti-inflammatory activity in Swiss mouse assessed as inhibition of LPS-induced protein extravasation in thoracic cavity at 100 ng/kg, ip pretreated for 1 hr followed by LPS stimulation and measured after 24 hrs; format: functional, organism-based
Mus musculus [14] = assay: Anti-inflammatory activity in Swiss mouse assessed as inhibition of LPS-induced nitric oxide production in pleural washes at 1 to 100 ng/kg, ip pretreated for 1 hr followed by LPS stimulation and measured after 24 hrs by Lowry/Griess analysis; format: functional, organism-based
[15] = target: P2X purinoceptor 7 (Mus musculus) (UniProt Q9Z1M0); assay: Antagonist activity at P2X7 receptor in Swiss mouse peritoneal macrophages assessed as inhibition of ATP-induced propidium iodide uptake at 10 uM after 30 mins by FLIPR assay relative to 1 mM ATP
P2X purinoceptor 7 [16] = target: T1, P2X purinoceptor 7; assay: Antagonist activity at P2X7 receptor in LPS/IFNc-differentiated Swiss mouse peritoneal macrophages assessed as inhibition of ATP-induced IL-1beta release preincubated for 30 mins followed by LPS stimulation for 4 hrs using cells treated with ATP for 30 mins by ELISA

IC50 (P2X purinoceptor 7 [3])	IC50 (P2X purinoceptor 7 [4])	IC50 (P2X purinoceptor 7 [5])	microsomal CLint at 1 µM [6]	solubility kinetic at 2 h [7]	logD at 2 h, 25000 µM [8]	inhibition [15]	IC50 (P2X purinoceptor 7 [16])	Structure (SMILES)	Activity (Mus musculus [1])	Activity (Mus musculus [2])	Activity (Peritoneal macrophage)	Activity (Mus musculus [9])	ID50 (Mus musculus [9])	Activity (Mus musculus [10])	Activity (Mus musculus [11])	Activity (Mus musculus [12])	Activity (Mus musculus [13])	Activity (Mus musculus [14])
								O=C(O)Cc1ccccc1Nc1c(Cl)cccc1Cl [DICLOFENAC]	inactive	inactive								
0.069 µM	0.0053 µM	0.0592 µM	30.2 µL/min/mg	< 250 µM	-1.96	84.7%	0.091 µM	CCOCc1cn(-c2ccc(Cl)cc2)nn1			8.33%	Dose-dependent effect	0.09435 µg/kg	Active	inactive	inactive	Active	Active
